# In publication PMC9143577, “Cationic Geminoid Peptide Amphiphiles Inhibit DENV2 Protease, Furin, and Viral Replication” (Molecules, 2022):
# “Also recorded” adds a separate entry of the source. Where a SMILES comes first, the peptide text is derived from it. The star is where a group is joined. Palmitoyl = CCCCCCCCCCCCCCCC(=O)*; NHhexadecyl = CCCCCCCCCCCCCCCCN*
# Experiments:
# [1] = molecular target: DENV2 protease (Dengue virus type 2, UniProt P14340); assay: biochemical
# Method: IC50 values were determined in CDD Vault using the Levenberg–Marquardt algorithm for fitting a Hill equation to dose-response data.
# (§1) Enzyme expression and purification
# DENV2 Protease Preparation. The enzyme was expressed and purified as previously described (ref. S1). Briefly, the vector with CF40 fused to NS3pro was used for high- level inducible expression of recombinant enzyme, tagged on the N-t erminus with hexahistidine. E. coli strain SG13009 cells were transformed with the expression plasmid and grown in kanamycin at 37 °C until the absorb ance at 600 nm r each ed a v alue of 0.6. Cells were induced for expression by the addition of isopropyl-β-D-thiogalactopyranose to a final concentration of 1 mM and incubated for additional 3 h at 30 °C. The cells were harvested by centrifugation, resuspended in 1 mL of a lysis buffer, subjected to sonication, and centrifuged again. The supernatant was collected and passed through a 2- mL column of nitrilotriacetic acid-agarose (Qiagen) loaded with Ni2+. The column was extensively washed with buffer containing […], and the protein was then eluted from then column in buffer containing 100 mM imidazole.
# Elution samples were analyzed by 15% SDS-PAGE and the substrate Z-RR- MCA was used to distinguish the activity of DENV2 protease from that of contaminating bacterial […]
# proteases. […]
# [2] = system: DENV2 replicon; settings: DENV2 HeLa replicon cells treated for 2 days; for inhibition of luciferase activity (DENV2 replicon): 10 µM
# Method: (§2) To investigate the effect of geminoids on viral replication, we used HeLa cells containing a DENV2 replicon. Instead of the structural proteins of DENV2, the replicon encodes a luciferase reporter that can be used as a readout for DENV2 protease dependent virus replication. Cell viability was assessed on the same cells using a colourimetric assay based on 3-(4,5-dimethylthiazol-2-yl)-5-(3-carboxymethoxyphenyl)-2H-tetrazolium (MTS) reduction, and by light microscopy. […] The viability of unmodified HeLa cells after treatment with these compounds was also tested in a separate experiment using the Celltiter Blue Viability Assay (Promega, see Supporting Information) in the concentration range of 0.8–50 μM.
# (§3) The replicon assay was carried out as described earlier using HeLa cells that contain a stably replicating DENV2 replicon expressing a luciferase reporter gene. The amphiphilic inhibitors were added as concentrated solutions in DMSO; the same amount of DMSO was used as the blank experiment, with the viral inhibitor ribavirin as a positive control. Luciferase activity and cell viability were assessed as described previously.
# [3] = system: trypsin; assay: Trypsin inhibition assay with Z-FR-MCA; assay type: biochemical; settings: 4 nM trypsin, 11.4 μM Z-FR-MCA; 100 mM Tris.HCl, pH 8.0, 10 mM CaCl2; read-out: IC50 (MCA Substrates) Trypsin
# Method: The assay was carried out in 100 mM Tris.HCl, 10 mM CaCl2, pH 8.0, with 4 nM enzyme and 11.4 µM Z-FR-MCA substrate.
# [4] = molecular target: human furin (Homo sapiens, UniProt P09958); assay: Furin inhibition assay with MCA substrate (Ac-RVRR-MCA); assay type: biochemical; settings: 0.76 nM furin, pH 7.0, 37 °C, read-out: IC50 (MCA Substrates) Furin
# Description: as §1
# DENV2 Protease Preparation. The enzyme was expressed and purified as previously described (ref. S1). […]
# subjected to sonication, and centrifuged again. The supernatant was collected and passed […]
# Human Furin Preparation. The enzyme was expressed and purified as previously described (ref. S3). Briefly, The PCMV-Fur_S vector containing cDNA […]
# Human furin was purifi ed […]
# substrate Abz-[…]- EDDnp.
# [5] = Critical micelle concentration by pyrene fluorescence; assay type: physicochemical; settings: pure water
# Method: Pyrene was used as a probe to study the changes in its fluorescence, in particular the ratio (I1/I3) of the intensities I1 and I3 […] 373 and 383 nm, respectively. An abrupt change in this ratio with increasing surfactant concentration points to an increase in hydrophobicity of the environment of the probe corresponding to the formation of aggregates. See Supporting Information for details.
# Determ ination of the critical m icelle concentrat ion (CMC)
# A solution of 5 mg pyrene in methanol (10 mL) was prepared and diluted 20 times. 50 µ L from the dil uted solution was added to geminoid solutions in water to a final volume of 3 mL. The geminoid samples were made from a stock solution of 500 µ M in water in a concentration range from 5 to 200 µ M. The fluorescence spectra were then measured after 1 hour wi th the […] set to 334 nm and emission range 350- 500 nm, excitation slit […], emission slit […] and at 25 °C. The ratio of the intensities was then plotted against the geminoid concentration, and the CMC is calculated from the intersection point of the best fits to the data points below and above it (Fig ure S5).
# (§4) Concentration (µM) Concentration (µM)
# Concentration (µM)Concentration (µM) Concentration (µM)Concentration (µM)
# (1 picture or pasted object on this page, not shown here)
# [6] = system: wildtype DENV2 (DENV2 NGC); assay type: cell-based, DENV2 New Guinea strain; settings: percentage of infected cells, 2 days after infection; for EC50: LLC-MK2 cells, read-out: DENV Replication in LLC-MK2 Cells EC50
# Method: LLC-MK2 (Monkey Rhesus Kidney cells; CCL-7.1) were passaged in assay medium (EMEM (Lonza Cat No: BESP069F) supplemented with 10% heat-inactivated FCS (Lonza), 2% Pen/strep (Gibco), 2% L-Glutamine (Gibco), 2% Hepes (Lonza), and 1% sodium bicarbonate (Lonza)) prior to use in the antiviral assay. Cells were seeded in 96-well plates (10^5 cells/well) in assay medium to be exposed 16–24 h later to compounds and viruses. The plates were incubated at 37 °C/5% CO2 overnight to allow for cell adherence.
# Compounds were solubilized in DMSO and evaluated using two-fold serial dilutions (8-points dose-response curves starting at a concentration of 50 µM) in duplicate for the antiviral assays. Compounds were diluted in assay medium at 1× test concentrations. Ribavirin (Sigma Aldrich, Amsterdam, The Netherlands) was evaluated as a positive control compound in the antiviral assays.
# DENV2 New Guinea strain was grown in AP-61 insect cells (in-house cell bank) in complete Leibovitz medium containing 1% pen/strep (Gibco), 1% L-glutamin (Gibco), 0.5% Hepes (Lonza), 0.5% sodium bicarbonate (Lonza), and 10% tryptose phosphate for the production of stock virus pools. On the day of cellular infection, an aliquot of virus was removed from the freezer (−80 °C) and allowed to thaw in water in a biological safety cabinet. Virus was diluted into assay medium (10^4 TCID50), and 100 µL of this was added to each well, resulting in a TCID50 of 100. Cells were incubated for 2 h at 37 °C/5% CO2 and washed 3 times with blank assay medium. Directly after washing, 100 µL of the compound dilutions were added to each well.
# Each plate contained cell control wells (cells only), virus control wells (cells plus virus), duplicate drug toxicity wells per compound (cells plus drug only), as well as duplicate experimental wells (drug plus cells plus virus).
# Virus-infected cells were visualised using a DENV2 immunoperoxidase staining protocol. Two days after infection, cells were inactivated with ethanol 70% for 30 min and washed with PBS. Fixed plates were incubated with PBS containing 0.05% H2O2 for 20 min at 37 °C and washed again 3 times with PBS. Plates were incubated for 1 h with 50 µL monoclonal anti-DENV-2 NS1 antibody (Millipore; diluted 1:500 in EMEM). Samples were washed once with PBS containing 0.05% Tween20 and twice with PBS only. Secondary polyclonal goat anti-mouse IgG HRP (Dako; diluted 1:2000) was added 50 µL per well and incubated for 1 h at 37 °C in the dark. […] Bidest water was added after removal of the substrate solution, and all virus-positive cells per well (marked by brown/red staining) were counted under a microscope. […]
# [7] = system: HeLa cells (wildtype); assay: Celltiter Blue Viability Assay on unmodified HeLa cells; settings: 24 h, 0.8–50 μM, highest concentration
# Method: as §2, §4
# [8] = system: DENV2 HeLa replicon cells; settings: 2 days, 0.3 to 10 µM
# Method: as §2, §3
# Sequence of human furin (P09958 108-576 limits assumed): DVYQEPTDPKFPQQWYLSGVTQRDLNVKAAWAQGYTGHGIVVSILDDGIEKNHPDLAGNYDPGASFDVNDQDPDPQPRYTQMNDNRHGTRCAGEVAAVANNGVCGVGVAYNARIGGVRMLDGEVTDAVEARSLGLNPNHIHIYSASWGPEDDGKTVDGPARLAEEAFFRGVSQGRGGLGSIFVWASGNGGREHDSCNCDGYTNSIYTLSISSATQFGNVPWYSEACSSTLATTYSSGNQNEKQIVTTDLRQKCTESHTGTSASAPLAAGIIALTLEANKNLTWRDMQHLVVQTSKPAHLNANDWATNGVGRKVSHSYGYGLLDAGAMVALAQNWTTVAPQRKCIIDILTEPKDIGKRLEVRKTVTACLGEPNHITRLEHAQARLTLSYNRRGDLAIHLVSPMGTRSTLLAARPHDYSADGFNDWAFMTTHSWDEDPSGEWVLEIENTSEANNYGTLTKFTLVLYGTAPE
# Sequence of DENV2 protease (P14340 1476-1653): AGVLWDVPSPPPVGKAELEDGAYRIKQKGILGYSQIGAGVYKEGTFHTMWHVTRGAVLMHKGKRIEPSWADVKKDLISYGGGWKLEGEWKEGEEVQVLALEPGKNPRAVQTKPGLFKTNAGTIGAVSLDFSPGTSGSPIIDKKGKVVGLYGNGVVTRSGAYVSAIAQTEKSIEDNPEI
# Sequence of DENV2 protease (P14340 1398-1437): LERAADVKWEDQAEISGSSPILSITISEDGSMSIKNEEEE
Structure (SMILES),IC50 [1],reduction of luciferase activity ([2]; 3 µM),inhibition of luciferase activity (DENV2 replicon) [2],IC50 [3],IC50 [4],CMC (Critical Micelle Concentration) [5],EC50 [6],toxicity in Celltiter Blue Viability Assay [7],"cell viability (MTS assay), relative to DMSO control [8]",DENV Replication in LLC-MK2 Cells EC50 [6]
CCCCCCCCCCCCCCCCNC(=O)[C@H](CCCCN)NC(=O)[C@H](CCCCN)NC(=O)CCCCCCCCCCCCCCC [Compound 1],4.25 ± 0.27 µM,–,–,–,–,–,–,–,–,–
"CCCCCCCCCCCCCCCCNC(=O)[C@H](CCCCN)NC(=O)[C@H](C)NC(=O)[C@H](CCCCN)NC(=O)CCCCCCCCCCCCCCC [Compound 2a, C15H31C(O)-Lys-(Ala)-Lys-NHC16H33.2TFA]",–,39%,62%,17.2 ± 0.66 µM,3.57 ± 0.18 µM,48 to 58 µM,4.1 ± 1.5 µM,–,–,–
"CCCCCCCCCCCCCCCCNC(=O)[C@H](CCCCN)NC(=O)[C@H](C)NC(=O)[C@H](C)NC(=O)[C@H](CCCCN)NC(=O)CCCCCCCCCCCCCCC [Compound 2b, C15H31C(O)-Lys-(Ala)2-Lys-NHC16H33.2TFA] (Palmitoyl-KAAK-NHhexadecyl)",–,–,47%,20.9 ± 0.34 µM,2.14 ± 0.1 µM,41 µM,3.1 ± 0.7 µM,–,–,–
CCCCCCCCCCCCCCCCNC(=O)[C@H](CCCCN)NC(=O)CNC(=O)[C@H](CCCCN)NC(=O)CCCCCCCCCCCCCCC [Compound 3a],–,–,38%,41 ± 2 µM,–,55 to 72 µM,12.7 ± 1.1 µM,–,–,–
CCCCCCCCCCCCCCCCNC(=O)[C@H](CCCCN)NC(=O)CNC(=O)CNC(=O)[C@H](CCCCN)NC(=O)CCCCCCCCCCCCCCC [Compound 3b] (Palmitoyl-KGGK-NHhexadecyl),–,–,–,–,–,30 µM,–,slight toxicity; also recorded: slight toxicities,considerable cytotoxicity,not active
